Results taken from patent publication US20170035793A1, “Use of P2X Purinergic Receptor Agonists to Enhance Insulin Secretion In Pancreatic Beta Cells” (priority 2010, published 2017).
Entries after “also recorded” stand apart in the source; their conditions may differ.

How the values were obtained:
pig islets = assay: Glucagon secretion from perifused pig islets; assay type: cell-based
From the text: (§1) Islet Isolation. Islets were isolated as previously described (57). Monkey islets were isolated from cynomolgus monkeys (Macacca fascicularis) >4 years of age at the time of pancreas procurement, as previously described (58). Pig pancreata were procured from the local slaughterhouse. Mice (C57BL/6) and rat (Lewis rat; Harlan) islets were isolated using a rodent-islet isolation technique (59). All animal protocols were approved by the University of Miami Care and Use Committee. Human pancreatic islets were obtained from the Human Islet Cell Processing Facility at the Diabetes Research Institute, University of Miami Miller School of Medicine or from the Islet Cell Resource basic science islet distribution program, Islet Cell Resource Centers (ICRs) Consortium, Division of Clinical Research, National Center for Research Resources, National Institutes of Health. Human islets were dissociated into single cells using enzyme-free cell dissociation buffer (Invitrogen). […]
(§2) Insulin and Glucagon Secretion. Insulin and glucagon secretion were measured as previously described (8, 36). […] Hormone release in the perifusate was determined with the human or mouse Endocrine LINCOplex Kit following manufacturer's instructions (Lincoresearch). […]

human islets = assay: ATP-induced (or α,β meATP-induced) insulin secretion in human islets with antagonists or blockers; assay type: cell-based; settings: nominal 0 Ca2+ (+1 mM EGTA), ATP 10 μM, α,β meATP 100 μM
From the text: Islet Isolation. Islets were isolated as previously described (57). Monkey islets were isolated from cynomolgus monkeys (Macacca fascicularis) >4 years of age at the time of pancreas procurement, as previously described (58). Pig pancreata were procured from the local slaughterhouse. Mice (C57BL/6) and rat (Lewis rat; Harlan) islets were isolated using a rodent-islet isolation technique (59). All animal protocols were approved by the University of Miami Care and Use Committee. Human pancreatic islets were obtained from the Human Islet Cell Processing Facility at the Diabetes Research Institute, University of Miami Miller School of Medicine or from the Islet Cell Resource basic science islet distribution program, Islet Cell Resource Centers (ICRs) Consortium, Division of Clinical Research, National Center for Research Resources, National Institutes of Health. Human islets were dissociated into single cells using enzyme-free cell dissociation buffer (Invitrogen). Islets and islets cells from Q:1 all species were cultured identically (37° C. and 5% CO2) inCMRL Q:2 medium-1066 (Invitrogen), niacinamide (10 mM; Sigma), ITS (BD Biosciences), Zn2SO4 (15 μM, Sigma), GlutaMAX (2 mM; Invitrogen), Hepes (25 mM; Sigma), FBS (10%; Invitrogen), and penicillinstreptomycin (100 IU/mL-100 μg/mL; Invitrogen).
Insulin and Glucagon Secretion. Insulin and glucagon secretion were measured as previously described (8, 36). A high-capacity automated perifusion system was developed to dynamically measure hormone secretion from pancreatic islets. A low pulsatility peristaltic pump pushed Hepes-buffered solution (125 mM NaCl, 5.9 mM KCl, 2.56 mM CaCl2, 1 mM MgCl2, 25 mM Hepes, and 0.1% BSA, pH 7.4 at a perifusion rate of 100 μL/min) through a column containing 100 pancreatic islets immobilized in Bio-Gel P-4 Gel (BioRad). Except when otherwise stated, glucose concentration was adjusted to 3 mM for all experiments. Stimuli were applied with the perifusion buffer. The perifusate was collected in an automatic fraction collector designed for a 96-well plate format. The columns containing the islets and the perifusion solutions were kept at 37° C., and the perifusate in the collecting plate was kept at <4° C. Perifusates were collected every 1 min. Hormone release in the perifusate was determined with the human or mouse Endocrine LINCOplex Kit following manufacturer's instructions (Lincoresearch). Human islet preparations varied considerably in their quality. Thus, the magnitudes of the responses to different stimuli were compared with the same recording or using recordings from the same preparation.

human P2X3 receptor = molecular target: T1, human P2X3 receptor (Homo sapiens, UniProt P56373); settings: read-out: reported EC50 for the human P2X3 receptor; cited from earlier work
T1 sequence (P56373 1-397): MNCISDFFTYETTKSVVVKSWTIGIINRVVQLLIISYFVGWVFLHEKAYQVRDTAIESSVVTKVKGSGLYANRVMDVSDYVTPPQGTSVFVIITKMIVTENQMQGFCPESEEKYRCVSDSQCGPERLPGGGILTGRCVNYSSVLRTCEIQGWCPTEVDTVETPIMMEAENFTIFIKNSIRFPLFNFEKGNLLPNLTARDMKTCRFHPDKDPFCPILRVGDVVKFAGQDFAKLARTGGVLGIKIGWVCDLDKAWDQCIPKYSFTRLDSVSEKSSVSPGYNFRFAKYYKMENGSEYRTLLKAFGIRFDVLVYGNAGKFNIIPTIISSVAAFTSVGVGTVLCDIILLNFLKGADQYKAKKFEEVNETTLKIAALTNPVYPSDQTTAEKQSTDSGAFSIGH

mouse islets = assay: Insulin secretion from perifused mouse islets; assay type: cell-based, Mice (C57BL/6); settings: 1-1,000 μM
From the text: as §1, §2

## Nc1ncnc2c1ncn2[C@@H]1O[C@H](COP(=O)(O)OP(=O)(O)OP(=O)(O)O)[C@@H](O)[C@H]1O [ATP]
Pig islets
  glucagon response of pig islets: difficult to discern
Human islets
  insulin responses to the agonist in the nominal absence of extracellular Ca2+: reduced; also recorded: strongly diminished
Human P2X3 receptor
  EC50: ~0.39 µM
Mouse islets
  insulin response of mouse islets: No responses to ATP were observed; also recorded: neither ATP nor any of the other purinergic agonists tested stimulated insulin release
